Data reported in patent US6548543B1, “Remedies or preventives containing cyclopentenone compounds as the active ingredient” (Takara Shuzo Co., Ltd., priority 1998, dated 2003).

How the values were obtained:
topoisomerase II = molecular target: T1, topoisomerase II (Homo sapiens, UniProt P11388); experiment: Topoisomerase II inhibition, pBR322 DNA relaxation; type: biochemical; conditions: 37° C., 30 minutes
T1 construct: purchased TopoGEN
Procedure: (1) 2 μl of topoisomerase II (TopoGEN; 2 units/μl), 2 μl of 10-fold concentrated buffer [0.5 M Tris-HCl (pH 8.0), 1.2 M KCl, 0.1 M MgCl2, 2.5 mM adenosine triphosphate, 5 mM dithiothreitol], 2 μl of 0.1% bovine serum albumin (Takara Shuzo), 11 μl of distilled water and 2 μl of distilled water (control) or 2 μl of one of aqueous solutions of dipropionylcyclopentenone, diisobutyrylcyclopentenone, dibenzoylcyclopentenone, dihexanoylcyclopentenone, di-2-hexenoylcyclopentenone, dimethoxyacetylcyclopentenone, dimethylfumarylcyclopentenone or dimethylmaleylcyclopentenone at varying concentrations were mixed together. 1 μl of 0.25 μg/μl pBR322 DNA (Takara Shuzo) was added thereto. The resulting mixture was reacted at 37° C. After reacting for 30 minutes, 2 μl of an aqueous solution containing 1% sodium dodecyl sulfate, 50% glycerol and 0.02% Bromophenol Blue was added thereto to stop the reaction.
20 μl of the reaction mixture was applied to 1% agarose gel prepared using agarose L03 (Takara Shuzo) and TAE buffer [40 mM Tris, 5 mM sodium acetate, 1 mm ethylenediaminetetraacetic acid disodium salt (EDTA); adjusted to pH 7.8 using acetic acid] and electrophoresed in TAE buffer. After electrophoresis, the gel was soaked in a 1 μg/ml aqueous ethidium bromide solution. The gel was exposed to ultraviolet rays to visualize the electophoretic pattern of DNA.

[1] = tested on: adhesion between vascular endothelial cells and HL-60 cells; experiment: Adhesion of HL-60 cells to TNF-α-stimulated vascular endothelial cells; type: cell-based, Human; conditions: for Adhesion rate: TNF-α-stimulated endothelial cells
Procedure: Human vascular endothelial cells (sold by Sanko Junyaku) suspended in RPMI-1640 medium (Gibco) containing 10% FCS (HyClone) at a concentration of 1×10^5 cells/ml. 100 μl/well of the suspension was seeded into a 96-well microtiter plate.
100 U/ml of human recombinant TNF-α (Promega) was added to monolayer of vascular endothelial cells after incubation at 37° C. for 2 days in a 5% CO2 incubator. The plate was incubated 37° C. for 6 hours in a 5% CO2 incubator to prepare vascular endothelial cells stimulated with TNF-α.
On the other hand, cyclopentenone, GM or dipropionylcyclopentenone at a varying concentration was added to HL-60 cells suspended in RPMI-1640 medium containing 10% FCS at a concentration of 1×10^6 cells/ml. The cells were cultured at 37° C. for 3 hours in a 5% CO2 incubator. After cultivation, 5 μM of 5(-and-6)-carboxyfluorescein diacetate, succinimide ester (Molecular Probe) as a fluorescent agent was added thereto and reacted at 37° C. for 10 minutes. The cells were washed twice with RPMI-1640 medium and suspended in RPMI-1640 medium containing 10% FCS to prepare a suspension of fluorescence-labeled HL-60 cells at a concentration of 1×10^6 cells/ml.
100 μl/well of the fluorescence-labeled HL-60 cells were overlaid onto the vascular endothelial cells stimulated with TNF-α. Cyclopentenone, GM or dipropionylcyclopentenone at a varying concentration was added thereto. The plate was incubated at 37° C. for 20 minutes in a 5% CO2 incubator for adhesion reaction between vascular endothelial cells and HL-60 cells.
After the adhesion reaction, the plate was washed to remove non-adhesive cells. 1% Triton X (Nacalai Tesque) was added thereto to destroy adhesive cells. The fluorescence intensity was measured using filters for 485/22 nm (excitation) and 530/25 nm (emission).
The adhesion rate which represents the ratio of cells adhered to vascular endothelial cells was determined defining the fluorescence intensity for 1×10^5 fluorescence-labeled cells as 100%.

[2] = tested on: tumor necrosis factor (TNF)-α; experiment: Endotoxin shock model, serum TNF-α after LPS; type: in vivo, CDF1 mice
Procedure: (1) A model for endotoxin shock was constructed using CDF1 mice (8 weeks old, female, purchased from Japan SLC). Distilled water (control), or 10 mg/kg of diisopropionylcyclopentenone or diisobutyrylcyclopentenone was subcutaneously administered to a mouse. 20 μg of lipopolysaccharide (LPS; Sigma) was intraperitoneally administered to each mouse 30 minutes after the administration. Blood was collected from the mouse 1.5 hours after the administration with LPS. The amount of tumor necrosis factor (TNF)-α in a serum separated from the collected blood was measured using a commercially available ELISA kit (R&D). Each group consisted of 4 mice.
(2) A model for endotoxin shock was constructed by intraperitoneally administering 20 μg of LPS to a CDF1 mouse (8 weeks old, female). 30 or 100 mg/kg of dipropionylcyclopentenone or diisobutyrylcyclopentenone was orally administered 30 minutes before the administration with LPS. Blood was collected from the mouse 1.5 hours after the administration with LPS. The amount of TNF-α in a serum separated from the collected blood was measured using an ELISA kit. Each group consisted of 4 mice.

Mouse leukemia P-388 = experiment: Survival of mice given mouse leukemia P-388; type: in vivo, DBA/2 mouse; conditions: P-388, single dose 10 mg/kg intraperitoneal
Procedure: (§1) (1) Mouse leukemia P-388 (1.1×10^6 cells/mouse) was intraperitoneally administered to a 7-weeks old female DBA/2 mouse. Immediately after the administration, a single dose of 10 mg/kg dipropionylcyclopentenone was intraperitoneally administered. On the other hand, saline was intraperitoneally administered to a control group in a similar manner. Survival number of mice, average days of survival and prolongation rate were calculated for 2 groups each consisting of 8 mice.

Meth A tumor cells = experiment: Survival of mice given Meth A tumor cells, single dose; type: in vivo, BALB/c mouse; conditions: single dose 10 mg/kg intraperitoneal
Procedure: as §1
Similarly, examination was carried out using a system of Meth A tumor cells: BALB/c mouse. As a result, the average days of survival were 13.4 days for the control group. The average days of survival were 16.9 days for the group administered with dipropionylcyclopentenone.

Meth A = experiment: Ascitic cancer Meth A, prolongation of survival, 5 successive days; type: in vivo, BALB/c mouse; conditions: for 30-day survival number: groups of 8 mice
Procedure: (3) The carcinostatic activities of dipropionylcyclopentenone and diisobutyrylcyclopentenone against various ascitic cancers were examined using two types of cancer cells, Ehrlich ascites carcinoma (EAC) and Meth A, administered intraperitoneally or orally at a varying dose.
Dipropionylcyclopentenone or diisobutyrylcyclopentenone was intraperitoneally or orally administered for 5 successive days from the day after the transplantation with cancer cells. Injectable distilled water was administered to a control group in a similar manner. Average days of survival, prolongation rate and 30-day survival number were calculated for groups each consisting of 8 mice.

T1 sequence (P11388 whole entry): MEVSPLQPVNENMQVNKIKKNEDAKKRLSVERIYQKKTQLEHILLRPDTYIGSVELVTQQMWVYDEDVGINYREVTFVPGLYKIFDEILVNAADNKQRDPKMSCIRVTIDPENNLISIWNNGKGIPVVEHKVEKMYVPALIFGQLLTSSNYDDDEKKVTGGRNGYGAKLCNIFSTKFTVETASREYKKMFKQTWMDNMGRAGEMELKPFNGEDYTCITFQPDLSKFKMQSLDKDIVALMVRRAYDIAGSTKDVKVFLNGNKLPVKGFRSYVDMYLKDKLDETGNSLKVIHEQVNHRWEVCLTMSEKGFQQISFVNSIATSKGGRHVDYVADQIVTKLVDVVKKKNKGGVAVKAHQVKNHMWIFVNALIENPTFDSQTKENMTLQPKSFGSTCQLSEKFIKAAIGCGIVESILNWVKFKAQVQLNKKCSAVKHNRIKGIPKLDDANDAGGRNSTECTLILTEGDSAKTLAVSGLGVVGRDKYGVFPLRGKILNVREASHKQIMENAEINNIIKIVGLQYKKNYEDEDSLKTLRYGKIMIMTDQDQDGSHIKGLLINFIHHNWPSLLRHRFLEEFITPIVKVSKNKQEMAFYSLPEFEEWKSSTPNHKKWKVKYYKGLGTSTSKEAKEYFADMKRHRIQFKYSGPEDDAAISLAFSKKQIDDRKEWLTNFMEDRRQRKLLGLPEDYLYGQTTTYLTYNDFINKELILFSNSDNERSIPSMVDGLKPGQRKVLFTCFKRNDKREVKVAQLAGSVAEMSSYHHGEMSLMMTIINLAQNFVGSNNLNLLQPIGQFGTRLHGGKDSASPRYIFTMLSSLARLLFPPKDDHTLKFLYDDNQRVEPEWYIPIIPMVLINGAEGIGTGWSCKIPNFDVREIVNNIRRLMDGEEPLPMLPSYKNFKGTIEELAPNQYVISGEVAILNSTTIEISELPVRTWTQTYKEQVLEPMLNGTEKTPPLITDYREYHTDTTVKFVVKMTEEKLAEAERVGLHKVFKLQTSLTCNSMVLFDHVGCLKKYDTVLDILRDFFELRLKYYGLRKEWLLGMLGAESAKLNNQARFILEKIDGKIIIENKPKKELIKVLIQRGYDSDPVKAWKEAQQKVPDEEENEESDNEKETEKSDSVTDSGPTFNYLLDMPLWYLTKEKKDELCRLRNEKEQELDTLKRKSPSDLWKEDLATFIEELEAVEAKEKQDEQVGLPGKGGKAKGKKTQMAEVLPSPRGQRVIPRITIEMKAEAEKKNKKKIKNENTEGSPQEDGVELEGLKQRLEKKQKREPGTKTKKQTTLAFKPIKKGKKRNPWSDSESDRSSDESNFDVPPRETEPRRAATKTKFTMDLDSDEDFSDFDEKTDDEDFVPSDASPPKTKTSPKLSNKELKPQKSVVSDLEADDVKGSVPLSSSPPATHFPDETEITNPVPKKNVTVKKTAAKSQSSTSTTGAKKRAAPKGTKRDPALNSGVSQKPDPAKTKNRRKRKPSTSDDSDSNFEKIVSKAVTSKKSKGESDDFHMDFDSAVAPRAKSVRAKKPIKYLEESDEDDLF

With CCC(=O)OC1C=CC(=O)C1OC(=O)CC (stereo not drawn) the “Concentration at which change of DNA from superhelical type to relaxed type was partially or completely inhibited” value (topoisomerase II) was no less than 0.1 µM, the Adhesion rate ([1]; 0.1 μM) was 49.2% and the Adhesion rate ([1]; 1 μM) was 35.1%. The Adhesion rate ([1]; 10 μM) was 15.3%, the Adhesion rate ([1]; 100 μM) was 15.5% and the “Suppression of TNF-α-induced increase in adhesion rate (statement)” value ([1]; 10^−7 to 10^−4 M, dose-dependent) was “suppressed”. For the same compound, the “TNF-α production compared with control group (statement)” value ([2]; 10 mg/kg subcutaneous) was “significantly suppressed”, the “Amount of TNF mean ± SE” value ([2]; 10 mg/kg subcutaneous 30 minutes before LPS, serum 1.5 hours after LPS) was 4.61 ± 0.57 ng/mL and the “TNF mean ± SE” value ([2]; 30 mg/kg oral 30 minutes before LPS, serum 1.5 hours after LPS) was 2.95 ± 0.14 ng/mL. For the same compound, the “TNF mean ± SE” value ([2]; 100 mg/kg oral 30 minutes before LPS, serum 1.5 hours after LPS) was 1.26 ± 0.15 ng/mL, the “TNF production compared with control group (statement)” value ([2]; oral 30 or 100 mg/kg) was “suppressed the TNF production in a dose-dependent manner” and the “Average days of survival” value (Mouse leukemia P-388) was 13.9 days. The Prolongation rate (Mouse leukemia P-388) was 137.0%, the “Average days of survival” value (Meth A tumor cells) was 16.9 days and the Prolongation rate (Meth A tumor cells) was 126.2%. For the same compound, the “Average days of survival” value (Meth A; intraperitoneal 10 mg/kg) was 20.5 days, the Prolongation rate (Meth A; intraperitoneal 10 mg/kg) was 174% and the 30-day survival number (Meth A; intraperitoneal 10 mg/kg) was 0. The “Average days of survival” value (Meth A; oral 30 mg/kg) was 17.3 days, the Prolongation rate (Meth A; oral 30 mg/kg) was greater than 147% and the 30-day survival number (Meth A; oral 30 mg/kg) was 2.
